{
  "source": "patent US12303845B2",
  "about": "“Method for crystallization of active pharmaceutical ingredients” (Nanoform Finland Oyj, priority 2023, dated 2025)",
  "assay_type_in_all_cases": "physicochemical",
  "key": {"[1]": {"experiment": "Stability tests of solid material (SEM, XRD, HPLC)", "conditions": "nanosized ceritinib composition, fresh vs stored at room temperature for one month", "procedure": "Solid material was weighted in separate vials (approx. 150 mg of material in each) and transferred to stability chambers. Three conditions were applied: ambient conditions (material in closed vial at RT), 25° C./65% RH and 40° C./75% RH. Material was analyzed at T0 as freshly prepared, T7 ([…]), T14 ([…]) and T30 (30 d) after the initiation of stability studies. SEM, XRD and dissolution/permeability studies were used to evaluate the crystallinity, particle size/morphology and performance of the material."}, "[2]": {"experiment": "Crystallization of amorphous nanosized API in aqueous polymer solution, polymorph/crystallinity by XRD", "procedure": "XRPD measurements were carried out using the Malvern PANalytical Empyrean X-ray diffractometer equipped with a Cu Kα (1.54 Å) source, MultiCore optics and a solid-state PIXcel3D detector. By using Kapton tape the samples were attached onto aluminum or polycrystalline silicon sample holders. Dried slurries were measured without further sample preparation under Kapton tape and suspensions were filtered, dried, and filters were attached with double sided tape. The samples were measured in the reflection geometry in a spinning measurement stage. The measurement range was 5-40 (°2θ). The step size and time per step values were varied depending on the counts per second obtained.\nDetermination of crystallization of API nanoparticles was evaluated via kinetic study of suspension. Accordingly, XRD measurement was done for suspension in different time points.\nAmorphous API nanoparticles (budesonide, ezetimibe, ceritinib, and apalutamide) were added as dry powders to aqueous polymer solutions. The mixtures were either • (i) mixed with a magnetic stirrer and ultrasonicated until API was completely surrounded by water (wetted). The stirring was continued for 16-24 h at ambient temperature or • (ii) blended with a metal spatula and allowed to stay at room temperature for 18-24 h.\nThe suspensions formed were analyzed after 18-24 h. SEM and XRD samples were prepared as described above."}, "[3]": {"experiment": "SEM of crystallized suspensions and dried products (crystal size grade, particle size)", "parameters": "key: 5 = nanocrystals; 1 = large crystals", "procedure": "SEM images were captured using the Zeiss Sigma 300 VP SEM instruments. Samples were dispersed into water and filtered with 0.1 μm filter. Filters were dried, transferred to SEM sample holders, and coated with a 5 nm thick layer of platinum. Amorphous API nanoparticles (budesonide, ezetimibe, ceritinib, and apalutamide) were added as dry powders to aqueous polymer solutions. The mixtures were either • (i) mixed with a magnetic stirrer and ultrasonicated until API was completely surrounded by water (wetted). The stirring was continued for 16-24 h at ambient temperature or • (ii) blended with a metal spatula and allowed to stay at room temperature for 18-24 h. The suspensions formed were analyzed after 18-24 h. SEM and XRD samples were prepared as described above. Suspension comprising nanosized APIs prepared as shown above were dried in a vacuum desiccator overnight. The solid materials were grounded to produce powders. The powders were analyzed on XRD and SEM. The powders comprising nanosized APIs were used in the stability, permeability, and dissolution tests as described above."}, "[4]": {"conditions": "Poloxamer 407 1 wt.-%, SLS 0.2 wt.-%, mAPI 25 mg/g"}, "[5]": {"conditions": "Poloxamer 407 1 wt.-%, no SLS, mAPI 25 mg/g"}, "[6]": {"conditions": "Poloxamer 407 2.5 wt.-%, SLS 0.2 wt.-%, mAPI 25 mg/g"}, "[7]": {"conditions": "Poloxamer 407 2.5 wt.-%, no SLS, mAPI 25 mg/g"}, "[8]": {"conditions": "Poloxamer 407 5 wt.-%, SLS 0.2 wt.-%, mAPI 25 mg/g"}, "[9]": {"conditions": "Poloxamer 407 5 wt.-%, no SLS, mAPI 25 mg/g"}, "[10]": {"conditions": "Poloxamer 407 5 wt.-%, no SLS, mAPI 150 mg/g"}, "[11]": {"conditions": "Poloxamer 407 7.5 wt.-%, no SLS, mAPI 150 mg/g"}, "[12]": {"conditions": "Poloxamer 407 7.5 wt.-%, no SLS, mAPI 300 mg/g"}, "[13]": {"conditions": "Poloxamer 407 10 wt.-%, SLS 0.2 wt.-%, mAPI 25 mg/g"}, "[14]": {"conditions": "Poloxamer 407 10 wt.-%, no SLS, mAPI 25 mg/g"}, "[15]": {"conditions": "Poloxamer 407 15 wt.-%, SLS 0.2 wt.-%, mAPI 150 mg/g"}, "[16]": {"conditions": "Poloxamer 407 15 wt.-%, SLS 0.2 wt.-%, mAPI 300 mg/g"}, "[17]": {"conditions": "Poloxamer 407 15 wt.-%, no SLS, mAPI 150 mg/g"}, "[18]": {"conditions": "Poloxamer 407 15 wt.-%, no SLS, mAPI 300 mg/g"}, "[19]": {"conditions": "Poloxamer 407 15 wt.-%, no SLS, mAPI 450 mg/g"}},
  "data": [
    {"smiles": "Cc1cc(Nc2ncc(Cl)c(Nc3ccccc3S(=O)(=O)C(C)C)n2)c(OC(C)C)cc1C1CCNCC1", "note": "[Cere, ceritinib]", "values": [
      {"measurement": "Stability of composition by SEM", "setting": "[1]", "result": "good stability"},
      {"measurement": "Polymorph", "setting": "[2]; HPMC 2.5 wt.-%, no SLS, mAPI 25 mg/g", "result": "amorphous"},
      {"measurement": "Polymorph", "setting": "[2]; PVPVA 1 wt.-%, SLS 0.2 wt.-%, mAPI 25 mg/g", "result": "amorphous"},
      {"measurement": "Polymorph", "setting": "[2]; PVPVA 2.5 wt.-%, SLS 0.2 wt.-%, mAPI 25 mg/g", "result": "amorphous"},
      {"measurement": "Polymorph", "setting": "[2]; PVPVA 2.5 wt.-%, no SLS, mAPI 25 mg/g", "result": "amorphous"},
      {"measurement": "Polymorph", "setting": "[2]; PVPVA 5 wt.-%, SLS 0.2 wt.-%, mAPI 25 mg/g", "result": "amorphous"},
      {"measurement": "Polymorph", "setting": "[2]; PVPVA 10 wt.-%, SLS 0.2 wt.-%, mAPI 25 mg/g", "result": "amorphous"},
      {"measurement": "Polymorph", "setting": "[2]; [4]", "result": "Form 1"},
      {"measurement": "Polymorph", "setting": "[2]; [5]", "result": "Form 1"},
      {"measurement": "Polymorph", "setting": "[2]; [6]", "result": "Form 1"},
      {"measurement": "Polymorph", "setting": "[2]; [7]", "result": "Form 1"},
      {"measurement": "Polymorph", "setting": "[2]; [8]", "result": "Form 1"},
      {"measurement": "Polymorph", "setting": "[2]; [9]", "result": "Form 1"},
      {"measurement": "Polymorph", "setting": "[2]; [10]", "result": "Form 1"},
      {"measurement": "Polymorph", "setting": "[2]; [11]", "result": "Form 1"},
      {"measurement": "Polymorph", "setting": "[2]; [12]", "result": "Form 1"},
      {"measurement": "Polymorph", "setting": "[2]; [13]", "result": "Form 1"},
      {"measurement": "Polymorph", "setting": "[2]; [14]", "result": "Form 1"},
      {"measurement": "Polymorph", "setting": "[2]; [15]", "result": "Form 1"},
      {"measurement": "Polymorph", "setting": "[2]; [16]", "result": "Form 1"},
      {"measurement": "Polymorph", "setting": "[2]; [17]", "result": "Form 1"},
      {"measurement": "Polymorph", "setting": "[2]; [18]", "result": "Form 1"},
      {"measurement": "Polymorph", "setting": "[2]; [19]", "result": "Form 1"},
      {"measurement": "Grade (SEM, visual inspection)", "setting": "[3]; [4]", "result": 5},
      {"measurement": "Grade (SEM, visual inspection)", "setting": "[3]; [5]", "result": 5},
      {"measurement": "Grade (SEM, visual inspection)", "setting": "[3]; [6]", "result": 5},
      {"measurement": "Grade (SEM, visual inspection)", "setting": "[3]; [7]", "result": 5},
      {"measurement": "Grade (SEM, visual inspection)", "setting": "[3]; [8]", "result": 5},
      {"measurement": "Grade (SEM, visual inspection)", "setting": "[3]; [9]", "result": 5},
      {"measurement": "Grade (SEM, visual inspection)", "setting": "[3]; [10]", "result": 3},
      {"measurement": "Grade (SEM, visual inspection)", "setting": "[3]; [11]", "result": 3},
      {"measurement": "Grade (SEM, visual inspection)", "setting": "[3]; [12]", "result": 3},
      {"measurement": "Grade (SEM, visual inspection)", "setting": "[3]; [13]", "result": 5},
      {"measurement": "Grade (SEM, visual inspection)", "setting": "[3]; [14]", "result": 5},
      {"measurement": "Grade (SEM, visual inspection)", "setting": "[3]; [15]", "result": 5},
      {"measurement": "Grade (SEM, visual inspection)", "setting": "[3]; [16]", "result": 5},
      {"measurement": "Grade (SEM, visual inspection)", "setting": "[3]; [17]", "result": 5},
      {"measurement": "Grade (SEM, visual inspection)", "setting": "[3]; [18]", "result": 5},
      {"measurement": "Grade (SEM, visual inspection)", "setting": "[3]; [19]", "result": 5}
    ]}
  ]
}
